According to patent US4528392A, “Aromatic compounds as antiallergic agents” (American Home Products Corporation, priority 1984, dated 1985):

Legend:
[1] = tested on: synthesis of LTB4 by rat glycogen-elicited polymorphonuclear leukocytes (lipoxygenase); assay: inhibition of LTB4 (5,12-diHETE) synthesis by rat glycogen-elicited polymorphonuclear leukocytes; assay type: cell-based, rat (female Wistar); conditions: Leukocyte, read-out: 50% Inhibitory Concentration (IC50) LTB4; rat peritoneal PMN, A23187 10 μM, [14C]arachidonic acid, 10 min preincubation at 37° C.
Procedure: (§1) Roy. […] Med., 74, 831 (1981)]. […] The assay is carried out as follows: Peritoneal PMN are obtained from female Wistar rats (150-250 g) that received an i.p. injection of 6% glycogen (10 ml). After 24 hours, rats are killed by CO2 asphyxiation and peritoneal cells are harvested by peritoneal lavage using Ca^++ and Mg^++ free Hanks' balanced salt solution (HBSS). The peritoneal exudate is centrifuged at 400 g for 10 minutes. […] To 1 ml portions of cell suspension, test drugs or vehicle are added and incubated at 37° C. for 10 minutes. […] The reaction is stopped by the addition of ice cold water (3 ml) and acidifying to pH 3.5. Lipoxygenase products are then extracted twice into diethyl ether.

[2] = tested on: synthesis of 5-HETE by rat glycogen-elicited polymorphonuclear leukocytes (lipoxygenase); assay: inhibition of 5-HETE synthesis by rat glycogen-elicited polymorphonuclear leukocytes; assay type: cell-based, rat (female Wistar); conditions: Leukocyte, read-out: 50% Inhibitory Concentration (IC50) 5-HETE; rat peritoneal PMN, A23187 10 μM, [14C]arachidonic acid, 10 min preincubation at 37° C.
Procedure: as §1

[3] = tested on: LTD4 induced bronchoconstriction; assay: in vivo inhibition of bronchospasm induced in guinea pigs by exogenously administered leukotriene (LTD4); parameters: species or system guinea pig (male Hartley); conditions: 50 mg/kg intraduodenal, 10 minutes before induction of bronchospasm by LTD4
Procedure: The assay of this Example measures the in vivo ability of the compounds of the invention to inhibit the bronchospasm induced in guinea pigs by the exogenously administered leukotrienes C4 and/or D4. This assay is essentially a measure of the SRS-A antagonist properties of the compounds tested.
This assay is carried out as follows:
Male Hartley strain guinea pigs (350-600 g) are anesthetized with pentobarbital sodium (50 mg/kg, i.p.). The jugular vein is cannulated for injection of drugs and the carotid artery for monitoring blood pressure. The trachea is cannulated for artificial ventilation by a miniature Starling pump and for indirect measurement of respiratory volume changes as described infra. Additional pentobarbital sodium (15 mg/kg, i.v.) is administered to arrest spontaneous respiration. Submaximal bronchoconstrictor responses are established in control animals by varying the dose-levels of leukotriene. Intravenous dose-levels for LTC4 range from 1 to 2 μg/kg and for LTD4 the range is from 0.3 to 1 μg/kg. The aerosol bronchoprovocation dose for LTC4 is generated from 1.6 μM solution and for LTD4 from a 2.0 μM solution.
Test drugs are administered either intravenously, intraduodenally, by aerosol or orally at 1 or 10 minutes before induction of bronchospasm by administration of either LTC4 or LTD4 at the predetermined dose-levels. Aerosols of soluble drugs or leukotrienes are produced in-line for 10 seconds only by actuation of an ultrasonic nebulizer (Monaghan). Aerosolized drug dosage is expressed in terms of solution concentration and by a fixed aerosol exposure time (approximately 10 seconds). Control animals receive saline in place of drug.
(§2) Respiratory volume changes are determined by a calibrated piston whose travel is recorded, via a linear transducer, on a Beckman Dynograph recorder. Maximal bronchoconstrictor volume is determined by clamping off the trachea at the end of the experiment. Overflow volumes at 1, 3 and 5 minutes are obtained from the recorded charts.
The overflow volume at 1, 3 and 5 minutes is expressed as a percentage of maximal bronchoconstriction. […]

[4] = tested on: ovalbumin induced bronchospasm mediated by endogenous products of the lipoxygenase oxidation of arachidonic acid; assay: in vivo inhibition of ovalbumin induced bronchospasm in guinea pigs by endogenous mediators; parameters: species or system guinea pig (male Hartley); conditions: 50 mg/kg intraduodenal, 10 minutes before ovalbumin challenge, indomethacin and chlorpheniramine pretreated
Procedure: The assay of this Example measures the in vivo ability of the compounds of the invention to inhibit the bronchospasm induced in guinea pigs by endogenous mediators of the bronchoconstriction.
The assay is carried out as follows:
Male Hartley strain guinea pigs weighing 350-600 g are sensitized to ovalbumin (OA) (5 mg i.p. and 5 mg s.c.) on day 0. Three to five weeks later, the animals are anesthetized with pentobarbital sodium (50 mg/kg, i.p.). The jugular vein is cannulated for injection of drugs and the carotid artery for monitoring blood pressure. The trachea is cannulated for artificial ventilation by miniature Staring pump and for indirect measurement of respiratory volume changes as described, infra. Additional pentobarbital sodium (15 mg/kg, i.v.) is administered to arrest spontaneous respiration. A cyclooxygenase inhibitor, indomethacin (10 mg/kg in tris buffer, i.v. at 9 min.) is administered to shunt arachidonic metabolism to lipoxygenase pathways. One minute later, chlorpheniramine (1.0 mg/kg in saline, i.v.) is given to attenuate the histaminic component of anaphylactic bronchoconstriction. Test drugs are administered either intravenously, intraduodenally or by aerosol at 2 or 10 minutes before antigen challenge. Anaphylactic bronchoconstriction is induced by administration of aerosolized OA (1%). Aerosols of OA or soluble drug are produced in-line for 10 seconds only by actuation of an ultrasonic nebulizer (Monaghan). Aerosolized drug dosage is expressed in terms of solution concentration and by a fixed aerosol exposure time (approximately10 seconds). Control animals receive saline in place of drug.
as §2, with “volumes at minutes 1, 3” for “volumes at 1, 3”, “and 5 are obtained” for “and 5 minutes are obtained”
The overflow volume at 1, 3 and 5 minutes is expressed as a percentage of maximal bronchoconstriction. Combined group values are used from each of these time intervals to determine the inhibitory effect of drugs. [formula] Students t-test for unpaired data is used to determine statistical significance. Dose response curves are generated and ED50 doses are interpolated from the regression lines.
The results for three compounds of the invention, with administration of the compounds at 10 minutes before ovalbumin challenge are presented below: […]

| IC50 [1] | IC50 [2] | SMILES | % Inhibition Overflow Volume at 1 min. ([3]; 1 min.) | % Inhibition Overflow Volume at 3 min. ([3]; 3 min.) | % Inhibition Overflow Volume at 5 min. ([3]; 5 min.) | % Inhibition Overflow Volume at 1 min. [4] | % Inhibition Overflow Volume at 3 min. [4] | % Inhibition Overflow Volume at 5 min. [4] |
| --- | --- | --- | --- | --- | --- | --- | --- | --- |
| 3.87 µM | 3.71 µM | CCCCCC(=O)c1ccc(OCc2cccc(NC(=O)CCC(=O)OC)c2)cc1OC [Example 6c, 4-[[3-[[3-methoxy-4-(1-oxohexyl)phenoxy]methyl]phenyl]amino]-4-oxobutanoicacid, methyl ester] |  |  |  |  |  |  |
| 1.7 µM | 1.59 µM | CCCCCCc1ccc(OCc2cccc(NC(=O)CC(=O)OC)c2)cc1OC [Example 8b, 3-[[3-[(4-hexyl-3-methoxyphenoxy)methyl]phenyl]amino]-3-oxopropanoic acid, methyl ester] |  |  |  |  |  |  |

Continued, molecule first:

| SMILES | IC50 [1] | IC50 [2] | % Inhibition Overflow Volume at 1 min. ([3]; 1 min.) | % Inhibition Overflow Volume at 3 min. ([3]; 3 min.) | % Inhibition Overflow Volume at 5 min. ([3]; 5 min.) | % Inhibition Overflow Volume at 1 min. [4] | % Inhibition Overflow Volume at 3 min. [4] | % Inhibition Overflow Volume at 5 min. [4] |
| --- | --- | --- | --- | --- | --- | --- | --- | --- |
| NC1=NN(c2cccc(C(F)(F)F)c2)CC1 [BW755C, reference compound] | 30 µM | 43 µM |  |  |  |  |  |  |
| COC(=O)CC(=O)Nc1cccc(COc2ccc(C(C)=O)c(O)c2)c1 [Example 1, 3-[[3-[(4-acetyl-3-hydroxyphenoxy)methyl]phenyl]amino]-3-oxopropanoic acid, methyl ester] | 11.7 µM | 14.2 µM | 25% | 48% | 56% | 99% | 77% | 63% |
| COC(=O)CCC(=O)Nc1cccc(COc2ccc(C(C)=O)c(O)c2)c1 [Example 2, 4-[[3-[(4-acetyl-3-hydroxyphenoxy)methyl]phenyl]amino]-4-oxobutanoic acid, methyl ester] |  |  |  |  |  | 93% | 24% | 35% |
| COC(=O)CC(=O)Nc1cccc(COc2ccc(C(C)=O)c(OC)c2)c1 [Example 4, 3-[[3-[(4-acetyl-3-methoxyphenoxy)methyl]phenyl]amino]-3-oxopropanoic acid, methyl ester] |  |  |  |  |  | 88% | 67% | 46% |
| CCc1ccc(OCc2cccc(NC(=O)CCC(=O)OC)c2)cc1OC [Example 7, 4-[[3-[(4-ethyl-3-methoxyphenoxy)methyl]phenyl]amino]-4-oxobutanoic acid, methyl ester] | 7.09 µM | 5.6 µM |  |  |  |  |  |  |
